Data reported in PMC2936488 (ACS chemical neuroscience, 2010).

Target: T1, M1 muscarinic acetylcholine receptor (M1 mAChR) (Homo sapiens, UniProt P11229)
T1 sequence (P11229 1-460): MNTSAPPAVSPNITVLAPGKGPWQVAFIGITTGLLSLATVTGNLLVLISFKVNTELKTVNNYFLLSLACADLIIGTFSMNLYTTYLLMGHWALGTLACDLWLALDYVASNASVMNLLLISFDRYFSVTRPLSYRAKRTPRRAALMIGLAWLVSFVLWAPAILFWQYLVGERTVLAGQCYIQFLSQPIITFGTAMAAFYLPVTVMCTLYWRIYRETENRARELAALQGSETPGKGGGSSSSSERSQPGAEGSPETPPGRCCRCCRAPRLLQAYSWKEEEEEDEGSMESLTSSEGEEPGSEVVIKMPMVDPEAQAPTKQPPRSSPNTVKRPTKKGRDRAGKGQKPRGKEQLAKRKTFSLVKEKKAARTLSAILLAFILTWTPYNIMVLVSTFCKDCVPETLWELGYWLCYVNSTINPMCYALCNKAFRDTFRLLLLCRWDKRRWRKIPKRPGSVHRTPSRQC
Assay: intracellular calcium mobilization in M1-CHO cells
Format: cell-based

- EC50: 0.146 µM
SMILES: CCCCC1CCN(CCCN2C(=O)COc3cc(F)ccc32)CC1 [AC260584]
